Read-outs that look alike come from different tables or passages of the source.
Columns and labels:
P. aeruginosa PA01 = assay: MIC broth microdilution and checkerboard; assay type: cell-based, Pseudomonas aeruginosa; details: for MIC: Pseudomonas aeruginosa
Experimental: (§1) The MIC for ampicillin or gentamicin against each isolate was determined for each test to serve as an internal quality control. The MICs of isolates were determined by visual reading and using an EnSpire Multimode Plate Reader 2300 atA600nm.
(§2) Briefly, antimicrobial stock solutions for robenidine and PMBN were prepared at a concentration of 12.8 mg/ml in DMSO. […] A 1 μl aliquot of the first compound from each combination was dispensed along the abscissa (from row A to G) of the 96-well microplate, while the second compound was dispensed along the ordinate (from column 12 to column 3) using an electronic multichannel pipette followed by 89 μl of LB broth. Each well of the plate was inoculated with an aliquot of 10 μl bacterial suspension at a concentration of 1-5 × 10^6 colony forming units (CFU) per ml. Subsequently, the plate was incubated at 37°C for 24 h. The fractional inhibitory concentration index (FICI) described the results of the combinations, and was calculated utilizing the following formula:
(§3) DRI = MIC of drug alone/MIC of drug in combination

[1] = system: P. aeruginosa (n = 30) clinical isolates from otitis externa cases in dogs; assay: MIC/MBC and checkerboard, canine otitis externa isolates; assay type: cell-based, Pseudomonas aeruginosa; details: for MIC50 / MIC90: Pseudomonas aeruginosa
Excerpt: (§4) Escherichia coli ATCC 25922, E. coli ATCC 11229, P. aeruginosa ATCC 27853, P. aeruginosa PA01, Pseudomonas putida ATCC 17428, P. mirabilis ATCC 43071, K. pneumoniae ATCC 13883, A. baumannii ATCC 19606, and A. baumannii ATCC 12457 were used for preliminary susceptibility testing and combination experiments. S. aureus ATCC 29213 and S. pneumoniae ATCC 49619 were used as internal quality controls. A variety of bacterial organisms from both human and canine infections were investigated in this study (n = 119 isolates in total). Twenty-eight clinical Acinetobacter spp. isolates were obtained from cases of human skin and soft tissue infections, including 18 Acinetobacter baumannii and 10 A. calcoaceticus, kindly provided by a person (Institute of Medical and Veterinary Science, South Australia). […] Ninety-one clinical isolates were obtained from cases of canine otitis externa, including seven methicillin-susceptible S. pseudintermedius (MSSP), 13 multidrug- and methicillin-resistant S. pseudintermedius (MRSP) ([Saputra et al., 2017]), 20 beta-haemolytic Streptococcus spp., 30 P. aeruginosa (10 of them resistant to gentamicin and 21 P. mirabilis isolates). These isolates were obtained from the bacterial collection of the national survey of antimicrobial resistance in animals conducted in Australia. Swab samples from dogs with signs of otitis externa were collected by veterinarians and submitted to government, private or university diagnostic laboratories throughout Australia. After routine bacterial identification and the removal of confidential information, the participating veterinary diagnostic laboratories submitted the bacteria and their clinical information to PC2 Laboratories, Australian Centre for Antimicrobial Resistance Ecology, School of Animal and Veterinary Sciences, University of Adelaide, Roseworthy Campus, Roseworthy, SA, Australia, for further study. Thus, animal ethics approval was not required in this study. These organisms were identified to species level using biochemical testing and MALDI-TOF mass spectrometry (Bruker, Preston, VIC, Australia).
as §1
(§5) Briefly, 10 μl aliquots from each duplicate well from the MIC assays (starting from the MIC for each compound) were inoculated onto a sheep blood agar (SBA) plate and incubated at 37°C.
as §2, §3

[2] = system: S. pseudintermedius (n = 20) clinical isolates from otitis externa cases in dogs; assay: as above; assay type: cell-based, Staphylococcus pseudintermedius; details: for MIC50 / MIC90: Staphylococcus pseudintermedius
Excerpt: as §4, §1, §5, §2, §3

[3] = system: Beta-haemolytic streptococci (n = 20) clinical isolates from otitis externa cases in dogs; assay: as above; assay type: cell-based, beta-haemolytic Streptococcus spp.; details: for MIC50 / MIC90: Streptococcus
Excerpt: as §4, §1, §5, §2, §3

[4] = system: A. calcoaceticus (human clinical isolate); assay: microbe, parasite or virus in culture; details: for MIC: Acinetobacter calcoaceticus
Experimental: as §1, §2, §3

A. baumannii ATCC 12457 = assay: microbe, parasite or virus in culture; details: for MIC: Acinetobacter baumannii
Experimental: as §1, §2, §3

K. pneumoniae ATCC 13883 = assay: microbe, parasite or virus in culture; details: for MIC: Klebsiella pneumoniae
Experimental: as §1, §2, §3

P. putida ATCC 17428 = assay: microbe, parasite or virus in culture; details: for MIC: Pseudomonas putida
Experimental: as §1, §2, §3

E. coli ATCC 25922 = assay: microbe, parasite or virus in culture; details: for MIC: Escherichia coli
Experimental: as §1, §2, §3

E. coli ATCC 11229 = assay: microbe, parasite or virus in culture; details: for MIC: Escherichia coli
Experimental: as §1, §2, §3

A. baumannii ATCC 19606 = assay: microbe, parasite or virus in culture; details: for MIC: Acinetobacter baumannii
Experimental: as §1, §2, §3

[5] = read-out: MIC, single drug (mM in parentheses)
[6] = concentration of the labelled component
[7] = canine otitis externa, read-out: MIC50, single drug
[8] = canine otitis externa, read-out: MIC90, single drug
[9] = read-out: MIC50, single drug (mM in parentheses)
[10] = read-out: MIC90, single drug (mM in parentheses)

MIC in combination EDTA:ROB (mM in parentheses) (P. aeruginosa PA01; EDTA component): 2.5 mM
MIC (P. aeruginosa PA01; read-out: MIC, single drug): 1900 µg/mL
MIC (P. aeruginosa PA01; [5]): 5 mM
MIC in combination EDTA:ROB (P. aeruginosa PA01; [6]): 950 µg/mL
MBC/MIC row, EDTA in combination [1]: 750 µg/mL
MBC/MIC row, EDTA in combination (mM in parentheses) [1]: 2 mM
MIC range, single drug (mM in parentheses) [1]: 2 to 12 mM
MIC50, in combination of EDTA and ROB (mM in parentheses) ([1]; EDTA component): 4 mM
MIC90, in combination of EDTA and ROB (mM in parentheses) ([1]; EDTA component): 4 mM
MIC range, in combination of EDTA and ROB (mM in parentheses) ([1]; EDTA component): 1 to 4 mM
MIC50 [1, 7]: 3000 µg/mL
MIC90 [1, 8]: 3000 µg/mL
MIC50 [1, 9]: 8 mM
MIC90 [1, 10]: 8 mM
MIC range, single drug ([1]; canine otitis externa): 750 to 4500 µg/mL
MIC50, in combination of EDTA and ROB [1, 6]: 1500 µg/mL
MIC90, in combination of EDTA and ROB [1, 6]: 1500 µg/mL
MIC range, in combination of EDTA and ROB [1, 6]: 380 to 1500 µg/mL
MBC/MIC row, EDTA in combination [2]: 750 µg/mL
MBC/MIC row, EDTA in combination (mM in parentheses) [2]: 2 mM
MIC range, single drug (mM in parentheses) [2]: 0.25 to 1 mM
MIC50, in combination of EDTA and ROB (mM in parentheses) ([2]; EDTA component): 0.25 mM
MIC90, in combination of EDTA and ROB (mM in parentheses) ([2]; EDTA component): 0.25 mM
MIC range, in combination of EDTA and ROB (mM in parentheses) ([2]; EDTA component): 0.25 mM
MIC50 [2, 7]: 190 µg/mL
MIC90 [2, 8]: 190 µg/mL
MIC50 [2, 9]: 0.5 mM
MIC90 [2, 10]: 0.5 mM
MIC range, single drug ([2]; canine otitis externa): 95 to 380 µg/mL
MIC50, in combination of EDTA and ROB [2, 6]: 95 µg/mL
MIC90, in combination of EDTA and ROB [2, 6]: 95 µg/mL
MIC range, in combination of EDTA and ROB [2, 6]: 95 µg/mL
MIC in combination EDTA:ROB (mM in parentheses) ([4]; A. calcoaceticus human clinical isolate, EDTA component): 0.6 mM
MIC in combination EDTA:ROB ([4]; A. calcoaceticus human clinical isolate, concentration of the labelled component): 228 µg/mL
MIC ([4]; read-out: MIC, single drug): 228 µg/mL
MIC [4, 5]: 0.6 mM
MIC in combination EDTA:ROB (mM in parentheses) (A. baumannii ATCC 12457; A. baumannii ATCC 12457, EDTA component): 0.25 mM
MIC in combination EDTA:ROB (A. baumannii ATCC 12457; A. baumannii ATCC 12457, concentration of the labelled component): 95 µg/mL
MIC (A. baumannii ATCC 12457; ATCC12457, read-out: MIC, single drug): 190 µg/mL
MIC (A. baumannii ATCC 12457; ATCC12457, read-out: MIC, single drug (mM in parentheses)): 0.5 mM
MIC in combination EDTA:ROB (mM in parentheses) (K. pneumoniae ATCC 13883; K. pneumoniae ATCC 13883, EDTA component): 10 mM
MIC in combination EDTA:ROB (K. pneumoniae ATCC 13883; K. pneumoniae ATCC 13883, concentration of the labelled component): 3800 µg/mL
MIC (K. pneumoniae ATCC 13883; ATCC13883, read-out: MIC, single drug): 11400 µg/mL
MIC (K. pneumoniae ATCC 13883; ATCC13883, read-out: MIC, single drug (mM in parentheses)): 30 mM
MIC in combination EDTA:ROB (mM in parentheses) (P. putida ATCC 17428; P. putida ATCC 17428, EDTA component): 2.5 mM
MIC in combination EDTA:ROB (P. putida ATCC 17428; P. putida ATCC 17428, concentration of the labelled component): 950 µg/mL
MIC (P. putida ATCC 17428; ATCC17428, read-out: MIC, single drug): 1900 µg/mL
MIC (P. putida ATCC 17428; ATCC17428, read-out: MIC, single drug (mM in parentheses)): 5 mM
MIC in combination EDTA:ROB (mM in parentheses) (E. coli ATCC 25922; E. coli ATCC 25922, EDTA component): 2.5 mM
MIC in combination EDTA:ROB (E. coli ATCC 25922; E. coli ATCC 25922, concentration of the labelled component): 950 µg/mL
MIC (E. coli ATCC 25922; ATCC25922, read-out: MIC, single drug): 3800 µg/mL
MIC (E. coli ATCC 25922; ATCC25922, read-out: MIC, single drug (mM in parentheses)): 10 mM
MIC in combination EDTA:ROB (mM in parentheses) (E. coli ATCC 11229; E. coli ATCC 11229, EDTA component): 0.6 mM
MIC in combination EDTA:ROB (E. coli ATCC 11229; E. coli ATCC 11229, concentration of the labelled component): 228 µg/mL
MIC (E. coli ATCC 11229; ATCC11229, read-out: MIC, single drug): 950 µg/mL
MIC (E. coli ATCC 11229; ATCC11229, read-out: MIC, single drug (mM in parentheses)): 2.5 mM
MIC in combination EDTA:ROB (mM in parentheses) (A. baumannii ATCC 19606; A. baumannii ATCC 19606, EDTA component): 0.5 mM
MIC in combination EDTA:ROB (A. baumannii ATCC 19606; A. baumannii ATCC 19606, concentration of the labelled component): 190 µg/mL
MIC (A. baumannii ATCC 19606; ATCC19606, read-out: MIC, single drug): 380 µg/mL
MIC (A. baumannii ATCC 19606; ATCC19606, read-out: MIC, single drug (mM in parentheses)): 1 mM
Structure (SMILES): O=C(O)CN(CCN(CC(=O)O)CC(=O)O)CC(=O)O [EDTA, ethylenediaminetetraacetic acid]
DRI EDTA:ROB (P. aeruginosa PA01; DRI of the labelled component): 2
MBC/MIC row, EDTA in combination [3]: 750 µg/mL
MBC/MIC row, EDTA in combination (mM in parentheses) [3]: 2 mM
MIC range, single drug (mM in parentheses) [3]: 0.5 to 2 mM
MIC50, in combination of EDTA and ROB (mM in parentheses) ([3]; EDTA component): 0.5 mM
MIC90, in combination of EDTA and ROB (mM in parentheses) ([3]; EDTA component): 1 mM
MIC range, in combination of EDTA and ROB (mM in parentheses) ([3]; EDTA component): 0.25 to 1 mM
MIC50 [3, 7]: 380 µg/mL
MIC90 [3, 8]: 750 µg/mL
MIC50 [3, 9]: 1 mM
MIC90 [3, 10]: 2 mM
MIC range, single drug ([3]; canine otitis externa): 190 to 750 µg/mL
MIC50, in combination of EDTA and ROB [3, 6]: 190 µg/mL
MIC90, in combination of EDTA and ROB [3, 6]: 380 µg/mL
MIC range, in combination of EDTA and ROB [3, 6]: 95 to 380 µg/mL
DRI EDTA:ROB ([4]; A. calcoaceticus human clinical isolate, DRI of the labelled component): 1
DRI EDTA:ROB (A. baumannii ATCC 12457; A. baumannii ATCC 12457, DRI of the labelled component): 2
DRI EDTA:ROB (K. pneumoniae ATCC 13883; K. pneumoniae ATCC 13883, DRI of the labelled component): 3
DRI EDTA:ROB (P. putida ATCC 17428; P. putida ATCC 17428, DRI of the labelled component): 2
DRI EDTA:ROB (E. coli ATCC 25922; E. coli ATCC 25922, DRI of the labelled component): 4
DRI EDTA:ROB (E. coli ATCC 11229; E. coli ATCC 11229, DRI of the labelled component): 4
DRI EDTA:ROB (A. baumannii ATCC 19606; A. baumannii ATCC 19606, DRI of the labelled component): 2

— publication PMC6494957 (Frontiers in Microbiology, 2019)
